System: KLN 205 cells (lung cell carcinoma)
Experiment: Effect of 9d and Cisplatin on KLN 205 tumour growth after subcutaneous, intradermal or intramuscular inoculation (Example 12)
Format: in vivo, DBA/2 mice
Settings: for SURFACE Overall values (Mean) / SURFACE Overall values (Median) / VOLUME Overall values (Mean) / VOLUME Overall values (Median): Groups B2-B4 (9d 250 ng, Cisplatin 65 μg, or both)
Protocol: This was carried out by measuring two perpendicular diameters (d1/d2) with a calliper. These measures were used to obtain both tumour surface and volume: […] Results were expressed as single values and/or as the mean±SD or median from each experimental group. This assay was made in order to check the effect on in vivo tumour growth in mice challenged with KLN 205 cells. Tumours where established by subcutaneous, intradermal or intramuscular inoculation. The effect of the combination of cisplatin and/or Isomer (9d) was compared with placebo in mice challenged intradermally. […] KLN 205 is a lung cell carcinoma originated in DBA/2 mouse strain, and therefore syngeneic in mice with DBA/2 genetic background (Kaneko T and […]. Growth characteristics and drug responses of a murine lung carcinoma in vitro and in vivo. Cancer Research. 38: 2084-2090; 1978). KLN 205 cells (CLS, Eppelheim, Germany) were maintained in vitro by serial passages every 3-4 days. […] Louis, Mo., USA) by seeding 5×10^6 cells onto 75 cm^2 culture flasks. Subcultures were carried out by collecting detached cells after treatment with trypsin-EDTA (Sigma, St. Louis, Mo., USA). Tumour cells, collected from 48 hour cultures, were used as source of KLN 205 cells for the studies described below. […] Tumours were established by subcutaneous and intradermal inoculation in the right hind flank, and intramuscular in the right hind leg. Mice (DBA/2) were inoculated with 0.05 mL containing 2×10^5 viable KLN 205 cells. The day of subcutaneous, intradermal and intramuscular inoculation will be considered Day 0 of the test. A case-control study was performed with treated and control mice in order to determine whether differences between placebo, 9d, Cisplatin or 9d+Cisplatin were present. The data obtained (tumour surface and volume) were tested for Normal distribution within the groups (Kolmogorov Smirnov test p<0.05). […] The U-test of Mann Withney was chosen for being one of the better known non-parametrical tests, anyway, results for this test are equivalent both to those of Wilcoxon's sum of ranges and Kruskal-Wallis two-groups test.

[1] = day 10 after tumour inoculation
[2] = day 13 after tumour inoculation
[3] = day 17 after tumour inoculation
[4] = day 20 after tumour inoculation
[5] = day 24 after tumour inoculation
[6] = day 27 after tumour inoculation
[7] = day 31 after tumour inoculation

N.N.[Cl][Pt][Cl] [Cisplatin, reference compound]
SURFACE Overall values (Mean) (day 0 after tumour inoculation): 0 mm^2 | SURFACE Overall values (Median) (day 0 after tumour inoculation): 0 mm^2 | VOLUME Overall values (Mean) (day 0 after tumour inoculation): 0 mm^3 | VOLUME Overall values (Median) (day 0 after tumour inoculation): 0 mm^3 | SURFACE Overall values (Mean) [1]: 7.3 mm^2 | SURFACE Overall values (Median) [1]: 6.5 mm^2 | VOLUME Overall values (Mean) [1]: 11.05 mm^3 | VOLUME Overall values (Median) [1]: 8.75 mm^3 | SURFACE Overall values (Mean) [2]: 20 mm^2 | SURFACE Overall values (Median) [2]: 20 mm^2 | VOLUME Overall values (Mean) [2]: 43.6 mm^3 | VOLUME Overall values (Median) [2]: 40 mm^3 | SURFACE Overall values (Mean) [3]: 38.3 mm^2 | SURFACE Overall values (Median) [3]: 33 mm^2 | VOLUME Overall values (Mean) [3]: 115.95 mm^3 | VOLUME Overall values (Median) [3]: 91.5 mm^3 | SURFACE Overall values (Mean) [4]: 62.2 mm^2 | SURFACE Overall values (Median) [4]: 56 mm^2 | VOLUME Overall values (Mean) [4]: 233.5 mm^3 | VOLUME Overall values (Median) [4]: 196 mm^3 | SURFACE Overall values (Mean) [5]: 93.7 mm^2 | SURFACE Overall values (Median) [5]: 96 mm^2 | VOLUME Overall values (Mean) [5]: 408.05 mm^3 | VOLUME Overall values (Median) [5]: 384 mm^3 | SURFACE Overall values (Mean) [6]: 124.1 mm^2 | SURFACE Overall values (Median) [6]: 129 mm^2 | VOLUME Overall values (Mean) [6]: 642.55 mm^3 | VOLUME Overall values (Median) [6]: 646.5 mm^3 | SURFACE Overall values (Mean) [7]: 151.3 mm^2 | SURFACE Overall values (Median) [7]: 155 mm^2 | VOLUME Overall values (Mean) [7]: 848.95 mm^3 | VOLUME Overall values (Median) [7]: 775 mm^3 | Inhibition of the in vivo growth of intradermal KLN 205 cells, in words (intradermal inoculation): inhibit the in vivo growth | Differences in intradermal KLN 205 tumour growth rate vs. placebo, statistical significance p (Mann-Whitney U test) (intradermal inoculation, surface or volume, days 17th, 20th and 31th): < 0.05
